Values quoted from earlier work as cited in patent US11464797B2, “Use of vitamin composition in preparing drug for preventing, treating, or delaying Alzheimer's disease” (Zensun (Shanghai) Science & Technology, Co., Ltd., priority 2017, dated 2022).

What was measured:
ATP level in CA1 area = settings: after 10 min of hypoxia in rats, magnesium ion treated brain slices; untreated 16% of normal
[1] = tested on: patients with mild cognitive impairment (MCI); settings: long-term intake (6-48 months)

Row | Compound | ATP level, of normal brain slices (ATP level in CA1 area) [%] | cognitive function [1]
1 | [Mg+2] [magnesium ion, magnesium] | 32 | 
2 | vitamin E |  | effectively improve cognitive function
